Patent publication US7371396B2, “Dermatological and cosmetic compositions” (Relivia SRL, priority 2001, dated 2008)

How the values were obtained:
[1] = test system: patients suffering from severe disabling atopic dermatitis (AD); test: Test in vivo with atopic dermatitis subjects (SCORAD system); set-up: species or system human
Protocol: Experiments were carried out on patients (n=20) of both sexes, of age above 18 years, suffering from severe disabling atopic dermatitis (AD) unresponsive to the current topical treatments.
All patients were subjected to complete blood count and measurements of renal and hepatic functions prior to treatment. Patients who had been systemically treated two months previously with corticoids, antibiotics, psoralenes and other immunosuppressants or with UV were excluded. Patients were supposed not to use any corticoid topically.
Material—A commercially available formulation Triderm Lenil (ICIM International srl, Gallarate, Italy) was used as such (formulation I) or with the addition of 1×10^−2 mol (0.33 g) of Furfuryl palmitate (formulation II).
Triderm Lenil ingredients: aqua, petrolatum, paraffinnum liquidum, dimethicone, laureth-9, C12-C15 alkyl benzoate, soy sterol, phenyl trimethicone, cetearyl alcohol, ribes nigrum, bisabolol, tocopheryl acetate, dimethicone copolyol, capryloyl glycine, glycyrrhetinc acid, superoxide dismutase, phytosphingosine, polyquaternium-7, sodium carbomer, hydroxypropyl guar, disodium EDTA, farnesol, sodium chloride.
Treatment—Out of 20 patients, 10 were included in the furfuryl palmitate-treated group […] and 10 in the control group (formulation I). […] Patients were divided in two groups and treated twice a day for one months either with the Furfuryl palmitate-containing cream or with the placebo cream (control group). Evaluations—The progress of the disease was monitored with the SCORAD system (Dermatology 1993; 186: 23-31) drafted by European Task Force on Atopic Dermatitis (European Society of Pediatric Dermatology, Bordeaux, September 1990) with further modification by Hanifin and Rajka, thus by monitoring 3 criteria: • A) Lesione spread: analysis of surface involvement was performed during the clinical examination by drawing the involved areas on the evaluation sheet, then calculate the proportion of involved surface area segment by segment. For example, if ¾th of the right lower limb is interested by AD, the corresponding score is of about 7/9. • B) Grading of intensity: carried out in a chosen representative area in patients with localized lesions. In patients with areas varying in severity, a representative area of mean involvement is chosen. Dryness should be evaluated in a remote area of non-inflammatory skin. The elementary lesions were classified in the following manifestation: a) Erythema b) Edema/papulation c) Oozing/crusting d) Excoriation e) Lichenification, wherein each item is scored on a scale of 0 to 3, with the total for the intensity criteria is based on a maximum of 18 • C) Subjective signs: by looking at the two most representative items concerning the quality of life of patients during the 3 previous days, i.e. pruritus and insomnia. The patient and/or one of their relatives expresses the intensity of pruritus or insomnia using a visual analog scale graded between 0 and 10.
At the beginning of the treatment, the body area affected by eczema was 69% on the average in all patients. […] At the end of the treatment, the mean scores for itching decreased from 2.3 to 0.6 and for sleep disorders from 7.9 to 1.0. only in the furfuryl palmitate-treated patients.

[2] = Nomeir et al., Drug Metab Dispos 20(2):198-204, 1992; cited from earlier work
[3] = at the end of the treatment, 10 patients in the treated group

| Structure (SMILES) | melting point | mean of the values concerning the different clinical symptoms (SCORAD) ([1]; after the first two weeks of treatment, cream with furfuryl palmitate (formulation II) twice a day, decreased from 57.0 (SEM 1.6 n=10) at start) | mean score for itching ([1]; at the end of the treatment (one month, twice a day), decreased from 2.3) | mean score for sleep disorders ([1]; at the end of the treatment (one month, twice a day), decreased from 7.9) | number of treated patients with significant improvements of all the considered parameters [1, 3] | treated patients with improvement limited to skin scaling [1, 3] | body area affected by eczema ([1]; reached during treatment, twice a day for one month, 69% on the average in all patients at the beginning) | toxicity compared with furfuryl alcohol [2] |
| --- | --- | --- | --- | --- | --- | --- | --- | --- |
| CCCCCCCCCCCCCCCC(=O)OCc1ccco1 [furfuryl palmitate, Furfuryl Palmitate] | 31 to 33 °C | 21.5 | 0.6 | 1.0 | 8 | two of them only showed improvements concerning skin scaling | 27% |  |
| O=Cc1ccco1 [furfural] |  |  |  |  |  |  |  | at least twice as toxic as the furfuryl alcohol |
